Results on two compounds are retold here after patent publication US4444786A, “Carbamate derivatives, insecticidal, miticidal or nematocidal compositions containing the same, and process for preparing the same” (priority 1981, dated 1984).

Data set [1] has as its system tobacco cutworm (Spodoptera litura). Kind of data set: Test Example 1: mortality of third-instar larvae of tobacco cutworm on cabbage, three days. It is filed as in vivo. The conditions noted are these: 72 h, 100 ppm active ingredient, 3 days. Here is the method: Ten third-instar larvae of tobacco cutworm (Spodoptera litura) were placed on a cabbage (one-month-old seedlings) planted in a pot, and a 50% emulsion of the compound to be tested was diluted to a specified concentration and applied to the leaves of the plant to fully wet them. The test compound of each specified concentration was tested on two pots.

Data set [2] concerns green rice leafhopper (Nephotettix cincticeps). Kind of data set: Test Example 2: mortality of female adults of green rice leafhopper on paddy rice, three days. Type of data set: in vivo. The conditions noted are these: 72 h, 3 days. Here is the method:
An emulsion of specified concentration was prepared from a 50% wettable powder of the compound to be tested and applied to the leaves of paddy rice (one-month-old seedlings) planted in a pot to fully wet the leaves. After air-drying the emulsion, the pot was covered with a net cage, into which 10 female adults of green rice leafhopper (Nephotettix cincticeps) were released. The compound of each specified concentration was tested on two pots.

The test system of data set [3] is house fly (Musca domestica). In words: Test Example 4: local application to house fly, LD50 by Probit method. It is filed as in vivo. The settings on record: topical, 24 hours. The procedure: The compound to be tested was dissolved in a predetermined amount of acetone. The solution was diluted to various concentrations and locally applied to house fly (Musca domestica).

Data set [4] can be described thus: Test Example 5: acute toxicity by oral administration against male mice. The conditions noted are these: mouse, in vivo, seventh day, Litchfield-Wilcoxon method. The procedure: The compound to be tested was evaluated in terms of acute toxicity by oral administration against male mice.
The subject of a further data set is noxious insects. The conditions noted are these: known, background; cited from earlier work.
A further data set relates to warm-blooded animals. The settings on record: known, background; cited from earlier work.
Data set [5] deals with southern root-knot nematode (Meloidogyne incognita). Kind of data set: Test Example 3: formation of nodules on tomato roots in soil contaminated with nematode larvae, one month. It is filed as in vivo. The source says:
Granules containing 10% of the compound to be tested were mixed, in a specified amount, with soil contaminated with larvae of southern root-knot nematode (Meloidogyne incognita), and tomato seedlings were immediately transplanted in the soil. One month later, the roots of the plant were checked for the formation of nodules. Two test areas, 2×2 m^2 each, were used for the compound as applied in each specified amount.

In data set [1], `CNC(=O)ON=C(C)SC` [Control*, S-methyl N-[(methylcarbamoyl)oxy]thioacetamidate, reference compound] displayed a mortality at 100 ppm of 80%. The same compound yielded a mortality at 200 ppm in data set [2] (200 ppm active ingredient) of 90%. The mortality at 400 ppm in data set [2] (400 ppm active ingredient) was 100%. The mortality at 800 ppm in data set [2] (800 ppm active ingredient) amounted to 100%. This compound also had an LD50 in data set [3] of 6.8 mg/kg. Besides, the LD50 at 168 h in data set [4] turned out to be 16 mg/kg. In the data set with noxious insects, the insecticidal activity result is “high insecticidal activity”. The “toxicity to warm-blooded animals” value in the data set on warm-blooded animals is on record as “high toxicity to warm-blooded animals”.
Turning to Bis(2-chloro-1-methylethyl)ethane, the “Degree of Formation of Nodules” value in data set [5] (granules (10%) applied at 10 kg/10 a) is reported as 4 (75 to 100%); in data set [5] (granules (10%) applied at 25 kg/10 a), 4 (75 to 100%); in data set [5] (granules (10%) applied at 50 kg/10 a) it was 2 (25 to 49%).
